Source: patent publication US20170283396A1, “DIAMINOHETEROARYL SUBSTITUTED INDAZOLES” (Bayer Pharma Aktiengesellschaft, priority 2013, published 2017)
Like-named read-outs stand apart in the source and are kept apart here.

Columns and labels:
[1] = system: HeLa cell line; test: Proliferation assay (HeLa cell line); format: cell-based; details: Homo sapiens, 96 h, read-out: Biological Assay 2: Proliferation assay (HeLa cell line) median IC50
Protocol: (§1) Cultivated tumor cells (cells were ordered from ATCC, except HeLa-MaTu and HeLa-MaTu-ADR, which were ordered from EPO-GmbH, Berlin) were plated at a density of 1000 to 5000 cells/well, depending on the growth rate of the respective cell line, in a 96-well multititer plate in 200 μL of their respective growth medium supplemented 10% fetal calf serum. After 24 hours, the cells of one plate (zero-point plate) were stained with crystal violet (see below), while the medium of the other plates was replaced by fresh culture medium (200 μL), to which the test substances were added in various concentrations (0 μM, as well as in the range of 0.001-10 μM; the final concentration of the solvent dimethyl sulfoxide was 0.5%). The cells were incubated for 4 days in the presence of test substances. Cell proliferation was determined by staining the cells with crystal violet: the cells were fixed by adding 20 μl/measuring point of an 11% glutaric aldehyde solution for 15 minutes at room temperature. After three washing cycles of the fixed cells with water, the plates were dried at room temperature. The cells were stained by adding 100 μl/measuring point of a 0.1% crystal violet solution (pH 3.0). After three washing cycles of the stained cells with water, the plates were dried at room temperature. The dye was dissolved by adding 100 μl/measuring point of a 10% acetic acid solution. Absorption was determined by photometry at a wavelength of 595 nm. The change of cell number, in percent, was calculated by normalization of the measured values to the absorption values of the zero-point plate (=0%) and the absorption of the untreated (0 μm) cells (=100%). The IC50 values were determined by means of a 4 parameter fit using the company's own software.

[2] = system: B16F10 cell line; test: Proliferation assay (B16F10 cell line); format: cell-based; details: Mus musculus, B16-F10, 96 h, read-out: Biological Assay 2: Proliferation assay (B16F10 cell line) median IC50
Protocol: as §1

[3] = biological target: T1, catalytic domain of human Bub1 (amino acids 704-1085) (Homo sapiens, UniProt O43683); test: Bub1 kinase assay (TR-FRET); format: biochemical
T1 construct: catalytic domain of human Bub1 (amino acids 704-1085); His6 (N); made in house; host or cells: Hi5 insect cells
Protocol: To this end, 100-fold concentrated compound solutions (in DMSO) were previously prepared by serial dilution (1:3.4) of 2 mM stocks in a clear low volume 384-well source microtiter plate (Greiner Bio-One, Frickenhausen, Germany), from which 50 nl of compounds were transferred into a black low volume test microtiter plate from the same supplier. […] The resulting mixture (5 μL final volume) was incubated at […] during 60 min., and the reaction was stopped by the addition of 5 μL of an aqueous EDTA-solution (50 mM EDTA, in 100 mM HEPES pH 7.5 and 0.2% (w/v) bovine serum albumin) which also contained the TR-FRET detection reagents (0.2 μM streptavidin-XL665 [Cisbio Bioassays, Codolet, France] and 1 nM anti-phosho-Serine antibody [Merck Millipore, cat. #35-001] and 0.4 nM LANCE EU-W1024 labeled anti-mouse IgG antibody [Perkin-Elmer, product no. AD0077, alternatively a Terbium-cryptate-labeled anti-mouse IgG antibody from Cisbio Bioassays can be used]). The stopped reaction mixture was further incubated 1 h at 22° C. in order to allow the formation of complexes between peptides and detection reagents. Subsequently, the amount of product was evaluated by measurement of the resonance energy transfer from the Eu-chelate-antibody complex recognizing the Phosphoserine residue to the streptavidin-XL665 bound to the biotin moiety of the peptide. […] IC50 values were calculated by fitting the normalized inhibition data to a 4-parameter logistic equation (Minimum, Maximum, IC50, Hill; Y=Max+(Min−Max)/(1+(X/IC50)Hill)).

[4] = system: NCI-H460 cell line; test: Proliferation assay (NCI-H460 cell line); format: cell-based; details: Homo sapiens, read-out: Biological Assay 2: Proliferation assay (NCI-H460 cell line) median IC50
Protocol: as §1

[5] = system: DU145 cell line; test: Proliferation assay (DU145 cell line); format: cell-based; details: Homo sapiens, DU-145, 96 h, read-out: Biological Assay 2: Proliferation assay (DU145 cell line) median IC50
Protocol: as §1

[6] = system: HeLa-MaTu-ADR cell line; test: Proliferation assay (HeLa-MaTu-ADR cell line); format: cell-based; details: 96 h, read-out: Biological Assay 2: Proliferation assay (HeLa-MaTu-ADR cell line) median IC50
Protocol: as §1

[7] = system: Caco2 cell line; test: Proliferation assay (Caco2 cell line); format: cell-based; details: Homo sapiens, Caco-2, 96 h, read-out: Biological Assay 2: Proliferation assay (Caco2 cell line) median IC50
Protocol: as §1

[8] = cervical cancer, 4 days incubation, crystal violet staining
[9] = TR-FRET, 10 μM ATP, 1 μM peptide substrate, read-out: Biological Assay 1: Bub1 kinase assay median IC50

T1 sequence (O43683 704-1085): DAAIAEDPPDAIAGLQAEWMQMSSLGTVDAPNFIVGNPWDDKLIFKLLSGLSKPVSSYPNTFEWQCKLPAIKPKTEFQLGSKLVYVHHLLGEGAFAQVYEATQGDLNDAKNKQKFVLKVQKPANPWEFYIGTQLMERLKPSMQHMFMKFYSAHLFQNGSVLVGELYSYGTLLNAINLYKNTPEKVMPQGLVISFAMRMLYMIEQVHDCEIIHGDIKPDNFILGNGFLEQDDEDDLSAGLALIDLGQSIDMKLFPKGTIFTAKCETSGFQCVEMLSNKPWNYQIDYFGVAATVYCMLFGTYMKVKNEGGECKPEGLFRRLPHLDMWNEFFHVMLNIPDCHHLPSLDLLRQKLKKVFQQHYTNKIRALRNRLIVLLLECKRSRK

Fc1ccccc1Cn1nc(-c2nc(Nc3ccncc3)cc(Nc3ccncc3)n2)c2ccccc21 [Example 2-1-2, 2-[1-(2-fluorobenzyl)-1H-indazol-3-yl]-N,N′-di(pyridin-4-yl)pyrimidine-4,6-diamine]
IC50 [1, 8]: 490 nM
IC50 ([2]; B16F10, melanoma, 4 days incubation, crystal violet staining): 250 nM
IC50 [3]: > 20000 nM
IC50 ([4]; 96 h, NCI-H460, non-small cell lung cancer, 4 days incubation, crystal violet staining): 470 nM
IC50 ([5]; DU145, prostate cancer, 4 days incubation, crystal violet staining): 360 nM
IC50 ([6]; HeLa-MaTu-ADR, cervical cancer, 4 days incubation, crystal violet staining): 1500 nM
IC50 ([7]; Caco2, colon cancer, 4 days incubation, crystal violet staining): 1100 nM

CCOc1cc(F)c(Cn2nc(-c3nc(Nc4ccncc4)c(OCCO)c(Nc4ccncc4)n3)c3ccccc32)c(F)c1 [Example 2-5-2, 2-({2-[1-(4-ethoxy-2,6-difluorobenzyl)-1H-indazol-3-yl]-4,6-bis-(pyridin-4-ylamino)pyrimidin-5-yl}oxy)ethanol]
IC50 [1]: 1200 nM
IC50 [2]: 520 nM
IC50 [3, 9]: 170 nM
IC50 ([4]; NCI-H460, 96 h): 590 nM
IC50 [5]: 940 nM
IC50 [6]: 280 nM
IC50 [7]: 400 nM

CCOc1cc(F)c(Cn2nc(-c3nc(Nc4ccncc4)nc(Nc4ccncc4)n3)c3ccccc32)c(F)c1 [Example 2-4-5, 6-[1-(4-ethoxy-2,6-difluorobenzyl)-1H-indazol-3-yl]-N,N′-di(pyridin-4-yl)-1,3,5-triazine-2,4-diamine]
IC50 [1]: 940 nM
IC50 [2]: 780 nM
IC50 [3, 9]: 43 nM
IC50 ([4]; NCI-H460, 96 h): 750 nM
IC50 [5]: 1200 nM
IC50 [6]: 390 nM
IC50 [7]: 480 nM

CCOc1cc(F)c(Cn2nc(-c3nc(N)cc(Nc4ccncn4)n3)c3ccccc32)c(F)c1 [Example 2-3-5, 2-[1-(4-ethoxy-2,6-difluorobenzyl)-1H-indazol-3-yl]-N-(pyrimidin-4-yl)pyrimidine-4,6-diamine]
IC50 [1]: 7800 nM
IC50 [3, 9]: 5.3 nM

CCOc1cc(F)c(Cn2nc(-c3nc(Nc4ccncc4)c(NC(=O)COC)c(Nc4ccncc4)n3)c3ccccc32)c(F)c1 [Example 2-4-8, N-{2-[1-(4-ethoxy-2,6-difluorobenzyl)-1H-indazol-3-yl]-4,6-bis(pyridin-4-ylamino)pyrimidin-5-yl}-2-methoxyacetamide]
IC50 [1]: 2500 nM
IC50 [3, 9]: 220 nM

CCOc1cc(F)c(Cn2nc(-c3nc(N)c(OCCO)c(Nc4ccncc4)n3)c3ccccc32)c(F)c1 [Example 2-5-1, 2-({4-amino-2-[1-(4-ethoxy-2,6-difluorobenzyl)-1H-indazol-3-yl]-6-(pyridin-4-ylamino)pyrimidin-5-yl}oxy)ethanol]
IC50 [1]: 3500 nM
IC50 [3, 9]: 4.1 nM

CCOc1cc(F)c(Cn2nc(-c3nc(N)c(OCCOC)c(Nc4ccncn4)n3)c3ccccc32)c(F)c1 [Example 2-3-11, 2-[1-(4-ethoxy-2,6-difluorobenzyl)-1H-indazol-3-yl]-5-(2-methoxyethoxy)-N-(pyrimidin-4-yl)pyrimidine-4,6-diamine]
IC50 [1]: 3700 nM
IC50 [3, 9]: 5.2 nM

CCOc1cc(F)c(Cn2nc(-c3nc(N)c(OC)c(Nc4ccncc4)n3)c3ccccc32)c(F)c1 [Example 2-3-2, 2-[1-(4-ethoxy-2,6-difluorobenzyl)-1H-indazol-3-yl]-5-methoxy-N-(pyridin-4-yl)pyrimidine-4,6-diamine]
IC50 [1]: 3800 nM
IC50 [3, 9]: 8.3 nM

CCOc1cc(F)c(Cn2nc(-c3nc(N)c(N4CCOCC4)c(Nc4ccncc4)n3)c3ccccc32)c(F)c1 [Example 2-3-3, 2-[1-(4-ethoxy-2,6-difluorobenzyl)-1H-indazol-3-yl]-5-(morpholin-4-yl)-N-(pyridin-4-yl)pyrimidine-4,6-diamine]
IC50 [1]: 3600 nM
IC50 [3, 9]: 4.3 nM

CCNC(=O)Nc1nc(-c2nn(Cc3c(F)cc(OCC)cc3F)c3ccccc23)nc(Nc2ccncn2)c1N1CCOCC1 [Example 2-3-8, 1-{2-[1-(4-ethoxy-2,6-difluorobenzyl)-1H-indazol-3-yl]-5-(morpholin-4-yl)-6-(pyrimidin-4-ylamino)pyrimidin-4-yl}-3-ethylurea]
IC50 [1, 8]: > 10000 nM
IC50 [3]: 280 nM

CCOc1cc(F)c(Cn2nc(-c3nc(N)c(NC(=O)COC)c(Nc4ccncc4)n3)c3ccccc32)c(F)c1 [Example 2-3-13, N-{4-amino-2-[1-(4-ethoxy-2,6-difluorobenzyl)-1H-indazol-3-yl]-6-(pyridin-4-ylamino)pyrimidin-5-yl}-2-methoxyacetamide]
IC50 [1]: 7800 nM
IC50 [3, 9]: 11 nM

CCOc1cc(F)c(Cn2nc(-c3nc(Nc4ccncc4)c(OC)c(Nc4ccncc4)n3)c3ccccc32)c(F)c1 [Example 2-4-2, 2-[1-(4-ethoxy-2,6-difluorobenzyl)-1H-indazol-3-yl]-5-methoxy-N,N′-di(pyridin-4-yl)pyrimidine-4,6-diamine]
IC50 [1]: 1500 nM
IC50 [2]: 540 nM
IC50 [3, 9]: 430 nM
IC50 ([4]; NCI-H460, 96 h): 4300 nM
IC50 [5]: 3700 nM
IC50 [6]: 1100 nM
IC50 [7]: 420 nM

CCOc1cc(F)c(Cn2nc(-c3nc(Nc4ccncc4)c(N4CCOCC4)c(Nc4ccncc4)n3)c3ccccc32)c(F)c1 [Example 2-4-3, 2-[1-(4-ethoxy-2,6-difluorobenzyl)-1H-indazol-3-yl]-5-(morpholin-4-yl)-N,N′-di(pyridin-4-yl)pyrimidine-4,6-diamine]
IC50 [1, 8]: 3400 nM
IC50 [3]: 640 nM
